Measurements taken from patent publication US11066399B2, “Ferroportin inhibitors” (Vifor (International) AG, priority 2015, dated 2021).

Columns and labels:
[1] = target: T1, human Fpn-GFP fusion protein (Homo sapiens, UniProt Q9NP59); assay: Ferroportin Internalization and Degradation Assay (FACS); format: cell-based; details: average (AVE) of multiple measurements, Fpn-GFP MFI, HEK-293 cell line #354, FACS
T1 construct: expressed in transfected cells; host or cells: HEK-293 cell line #354 (derivative of HEK-293 Tet-ON Advanced, Clontech)
T1 sequence (Q9NP59 1-571): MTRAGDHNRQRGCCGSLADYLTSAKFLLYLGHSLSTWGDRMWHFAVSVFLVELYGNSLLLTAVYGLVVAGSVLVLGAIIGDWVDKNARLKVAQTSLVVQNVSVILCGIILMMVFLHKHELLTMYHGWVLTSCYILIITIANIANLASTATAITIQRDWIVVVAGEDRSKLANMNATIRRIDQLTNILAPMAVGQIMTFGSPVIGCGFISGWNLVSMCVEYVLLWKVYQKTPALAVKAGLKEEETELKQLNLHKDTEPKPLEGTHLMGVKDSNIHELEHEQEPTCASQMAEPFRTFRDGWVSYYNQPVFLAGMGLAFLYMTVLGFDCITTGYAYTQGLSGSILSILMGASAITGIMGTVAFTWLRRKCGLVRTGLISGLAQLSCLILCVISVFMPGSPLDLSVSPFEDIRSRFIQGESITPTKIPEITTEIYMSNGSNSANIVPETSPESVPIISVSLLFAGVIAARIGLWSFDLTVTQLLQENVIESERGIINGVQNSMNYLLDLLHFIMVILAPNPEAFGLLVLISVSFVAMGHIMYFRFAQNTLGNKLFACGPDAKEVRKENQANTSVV
Experimental: Growing HEK-293 #354 cells in doxycycline containing media induced expression of human Fpn-GFP fusion protein on the cell surface. […] Small molecular weight Fpn inhibitor compounds were tested for dose-dependent effects on the Fpn-GFP mean fluorescence intensity (MFI) on HEK-293 cell line #354, as described below. HEK #354 cells were harvested from ca. 80% confluent cultures, seeded at 0.6×10^6 cells/ml in DMEM/F12 GlutaMAX™ medium (Invitrogen, Cat. 31331-028) containing 10% FBS (Clontech, Cat. 631106), 1% Penicillin-Streptomycin (Invitrogen, Cat. 15140-122), 200 μg/ml Hygromycin B (Invitrogen, Cat. 10687-010), Blasticidin 5 μg/ml, (Invitrogen, Cat. R210-01), 4 μg/ml doxycycline (Clontech, Cat. 631311), 50 μl per well of 384 well plates (Greiner; Cat. 781091) and grown at 37° C. with 5% CO2. After overnight incubation, 10 μl/well of dilution series of the test compounds were added in quadruplicates and plates were further incubated overnight at 37° C. with 5% CO2. Cells were washed once with FACS buffer (PBS containing 1% FBS, 2 mM EDTA and 0.05% NaN3), harvested in FACS buffer with 0.5 μg/ml propidium iodide (Sigma, Cat. P4864) and analyzed in a flow cytometer (CANTO™ II, BD Biosciences) equipped with high throughput sampler. Live HEK #354 cells were gated as propidium iodide negative population and analyzed for expression of Fpn-GFP.

[2] = target: T2, human Fpn-GFP fusion construct (Homo sapiens, UniProt Q9NP59); assay: Inhibition of ferroportin mediated iron export activity in an iron response assay (BLAzer); format: cell-based; details: average (AVE) of multiple measurements; HEK-293 cell line #354
T2 construct: expressed in transfected cells; host or cells: HEK-293 cell line #354 (derivative of HEK-293 Tet-ON Advanced, Clontech)
T2 sequence (Q9NP59 1-571): T1 sequence (Q9NP59 1-571)
From the text: Intracellular iron levels are indirectly measured in this assay by monitoring the activity of a beta-lactamase (BLA) reporter gene fused to the human ferritin promoter and the associated iron regulatory element (IRE) contained within the 5′ untranslated region of the ferritin mRNA. Expression of ferroportin (Fpn) in such a cell line leads to iron efflux and lower iron levels as reflected by lower activity of the reporter gene. On the other hand, inhibition of Fpn-mediated iron efflux results in elevated cellular iron levels which is detected as increased reporter gene activity. Small molecular weight Fpn inhibitor compounds were tested for dose-dependent effects in this in vitro iron response assay as described below.
The HEK-293 cell line #354 was generated by stable integration of (i) a human Fpn-GFP fusion construct inserted in a derivative of the doxycycline-inducible pTRE-Tight-BI plasmid (Clontech, Cat. 631068) and (ii) a human ferritin promoter-BLA reporter gene into a derivative of the HEK-293 Tet-ON Advanced cell line (Clontech). […] After overnight incubation, 10 μl/well of dilution series of the test compounds were added in quadruplicates and plates were further incubated overnight at 37° C. with 5% CO2. Cells were washed 3 times with HBSS leaving 25 μl per well. BLA activity was detected by adding 5 μl/well of the GeneBlazer reagent CCF4-AM (Invitrogen, Cat. K1085) to the cells. After incubation of the plates in the dark at 18° C. for 60 min., blue and green fluorescence signals were measured in a Safire2 fluorescence plate reader (Tecan) with excitation at 410 nm and emissions at 458 nm (blue) and 522 nm (green). The ratio of blue/green fluorescence as a measure for BLA activity was calculated and EC50 values were determined with the calculated blue/green fluorescence ratios as described for the hepcidin internalization assay.

Structure (SMILES) | EC50 [1] | EC50 [2] | DC50 ([1]; read-out: EC50 (the source's name))
O=C(NCc1ncccc1F)c1cnc(C2CN(CCc3nc4ccccc4[nH]3)C2)o1 [Example 2] | 630 nM | 1030 nM | 
O=C(NCc1ncccc1F)c1cnn(CCNCCc2cc3ccccc3[nH]2)c1 [Example 277] |  | 170 nM | 69 nM
O=C(NCc1ncccc1F)c1cnc(CCNCCc2nc3ccccc3[nH]2)o1 [Example 1] | 220 nM | 930 nM | 
O=C(NCc1ncccc1F)c1csc(CCNCc2nc3ccccc3[nH]2)n1 [Example 40] | 810 nM | 1450 nM | 
